In the assay the target is Jak2 (human Jak2 kinase domain, amino acids 808-1132) (Homo sapiens (Human), UniProt O60674). As to the kind of experiment: Jak2 inhibition assay (Omnia kinase assay). The class given is biochemical. The settings on record: read-out: Jak2 Enzyme (% inhibition at 1000 nM), Table 1; 1000 nM test compound.
Chain of Jak2 (human Jak2 kinase domain, amino acids 808-1132) (O60674 808-1132): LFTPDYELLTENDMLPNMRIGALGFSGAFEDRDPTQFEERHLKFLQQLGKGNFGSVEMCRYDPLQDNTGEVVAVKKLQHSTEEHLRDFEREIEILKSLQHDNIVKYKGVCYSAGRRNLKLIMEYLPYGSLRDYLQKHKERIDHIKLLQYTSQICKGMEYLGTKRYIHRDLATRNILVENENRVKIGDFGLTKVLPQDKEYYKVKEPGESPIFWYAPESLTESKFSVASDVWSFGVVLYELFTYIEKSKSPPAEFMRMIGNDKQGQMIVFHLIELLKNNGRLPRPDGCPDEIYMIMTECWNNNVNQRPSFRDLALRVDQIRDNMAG
`C[C@H](NC(=O)c1cnn2ccc(N3CCC[C@@H]3c3cncc(F)c3)nc12)C(F)(F)F` [Example 130, 5-((R)-2-(5-fluoropyridin-3-yl)pyrrolidin-1-yl)-N-((S)-1,1,1-trifluoropropan-2-yl)pyrazolo[1,5-a]pyrimidine-3-carboxamide]: the inhibition (in general, the change of the read-out against control, counted positive when it falls) at 1 µM is 27.9%.

Consider `O=C(NCC(F)(F)F)c1cnn2ccc(N3CCC[C@@H]3c3cncc(F)c3)nc12` [Example 131, (R)-5-(2-(5-fluoropyridin-3-yl)pyrrolidin-1-yl)-N-(2,2,2-trifluoroethyl)pyrazolo[1,5-a]pyrimidine-3-carboxamide], for which the inhibition at 1 µM was determined as 14.6%. For the compound `CC(C)(CO)NC(=O)c1cnn2ccc(N3CCC[C@@H]3c3cncc(F)c3)nc12` [Example 132], the inhibition at 1 µM is 3.7%. In the case of `O=C(NCC(F)F)c1cnn2ccc(N3CCC[C@@H]3c3cncc(F)c3)nc12` [Example 134, (R)-N-(2,2-difluoroethyl)-5-(2-(5-fluoropyridin-3-yl)pyrrolidin-1-yl)pyrazolo[1,5-a]pyrimidine-3-carboxamide], the inhibition at 1 µM is 3.3%. For the compound `O=C(N[C@@H]1CCC[C@@H]1O)c1cnn2ccc(N3CCC[C@@H]3c3cncc(F)c3)nc12` [Example 135, 5-((R)-2-(5-fluoropyridin-3-yl)pyrrolidin-1-y1)-N-((1R,2S)-2-hydroxycyclopentyl)pyrazolo[1,5-a]pyrimidine-3-carboxainide], the inhibition at 1 µM was -1%. With `O=C(N[C@@H]1CCCC[C@H]1O)c1cnn2ccc(N3CCC[C@@H]3c3cncc(F)c3)nc12` [Example 136, 5-((R)-2-(5-fluoropyridin-3-yl)pyrrolidin-1-yl)-N-((1R,2R)-2-hydroxycyclohexyl)pyrazolo[1,5-a]pyrimidine-3-carboxamide], the inhibition at 1 µM came to 4.8%. Under `O=C(c1cnn2ccc(N3CCC[C@@H]3c3cncc(F)c3)nc12)N1CCCCC1` [Example 137, (R)-(5-(2-(5-fluoropyridin-3-yl)pyrrolidin-1-yl)pyrazolo[1,5-a]pyrimidin-3-yl)(piperidin-1-yl)methanone] stands 3.6%; under `COc1ncc(F)cc1[C@H]1CCCN1c1ccn2ncc(C(=O)N3CC(O)C3)c2n1` [Example 139, (R)-(5-(2-(5-fluoro-2-methoxypyridin-3-yl)pyrrolidin-1-yl)pyrazolo[1,5-a]pyrimidin-3-yl)(3-hydroxyazetidin-1-yl)methanone], -0.4%. As to `COc1ncc(F)cc1[C@H]1CCCN1c1ccn2ncc(C(=O)NCCCNC(=O)OC(C)(C)C)c2n1` [Example 141, (R)-tert-butyl 3-(5-(2-(5-fluoro-2-methoxypyridin-3-yl)pyrrolidin-1-yl)pyrazolo[1,5-a]pyrimidine-3-carboxamido)propylcarbamate], the inhibition at 1 µM turned out to be 9.4%.

As for `NCCCNC(=O)c1cnn2ccc(N3CCC[C@@H]3c3cc(F)c[nH]c3=O)nc12` [Example 142, (R)—N-(3-aminopropyl)-5-(2-(5-fluoro-2-oxo-1,2-dihydropyridin-3-yl)pyrrolidin-1-yl)pyrazolo[1,5-a]pyrimidine-3-carboxamide], the inhibition at 1 µM was -0.9%. Under `COc1ncc(F)cc1[C@H]1CCCN1c1ccn2ncc(C(=O)NC[C@H](O)CO)c2n1` [Example 143, N—((S)-2,3-dihydroxypropyl)-5-((R)-2-(5-fluoro-2-methoxypyridin-3-yl)pyrrolidin-1-yl)pyrazolo[1,5-a]pyrimidine-3-carboxamide] stands 7%. With `COc1ncc(F)cc1[C@H]1CCCN1c1ccn2ncc(C(=O)N3CC(C)(O)C3)c2n1` [Example 147, (R)-(5-(2-(5-fluoro-2-methoxypyridin-3-yl)pyrrolidin-1-yl)pyrazolo[1,5-a]pyrimidin-3-yl)(3-hydroxy-3-methylazetidin-1-yl)methanone], the inhibition at 1 µM amounted to 0.9%. On to `COc1ncc(F)cc1[C@H]1CCCN1c1ccn2ncc(C(=O)NCCCO)c2n1` [Example 148, (R)-5-(2-(5-fluoro-2-methoxypyridin-3-yl)pyrrolidin-1-yl)-N-(3-hydroxypropyl)pyrazolo[1,5-a]pyrimidine-3-carboxamide], for which the inhibition at 1 µM came to 44.3%. `COc1ncc(F)cc1[C@H]1CCCN1c1ccn2ncc(C(=O)NCC(O)CO)c2n1` (stereo partly drawn) [Example 149, N-(2,3-dihydroxypropyl)-5-((R)-2-(5-fluoro-2-methoxypyridin-3-yl)pyrrolidin-1-yl)pyrazolo[1,5-a]pyrimidine-3-carboxamide]: the inhibition at 1 µM was found to be 10.2%. Under `COc1ncc(F)cc1[C@H]1CCCN1c1ccn2ncc(C(=O)NC[C@@H](O)CO)c2n1` [Example 150, N-((R)-2,3-dihydroxypropyl)-5-((R)-2-(5-fluoro-2-methoxypyridin-3-yl)pyrrolidin-1-yl)pyrazolo[1,5-a]pyrimidine-3-carboxamide] stands 8.9%; under `COc1ncc(F)cc1[C@H]1CCCN1c1ccn2ncc(C(=O)NCCCCO)c2n1` [Example 151, (R)-5-(2-(5-fluoro-2-methoxypyridin-3-yl)pyrrolidin-1-yl)-N-(4-hydroxybutyl)pyrazolo[1,5-a]pyrimidine-3-carboxamide], 35.6%. As to `COc1ncc(F)cc1[C@H]1CCCN1c1ccn2ncc(C(=O)NOCCOC(C)(C)C)c2n1` [Example 152, (R)-N-(2-tert-butoxyethoxy)-5-(2-(5-fluoro-2-methoxypyridin-3-yl)pyrrolidin-1-yl)pyrazolo[1,5-a]pyrimidine-3-carboxamide], the inhibition at 1 µM was determined as 7.6%.

In the case of `CNC(=O)c1cnn2ccc(N3CCC[C@@H]3c3cc(F)cnc3OC)nc12` [Example 153, (R)-5-(2-(5-fluoro-2-methoxypyridin-3-yl)pyrrolidin-1-yl)-N-methylpyrazolo[1,5-a]pyrimidine-3-carboxamide], the inhibition at 1 µM was 33.8%.

In the case of `COc1ncc(F)cc1[C@H]1CCCN1c1ccn2ncc(C(=O)N[C@H]3CC[C@H](O)C3)c2n1` [Example 154, 5-((R)-2-(5-fluoro-2-methoxypyridin-3-yl)pyrrolidin-1-yl)-N-((1S,3S)-3-hydroxycyclopentyl)pyrazolo[1,5-a]pyrimidine-3-carboxamide], the inhibition at 1 µM turned out to be 64.4%. Turning to `COc1ncc(F)cc1[C@H]1CCCN1c1ccn2ncc(C(=O)NCCO)c2n1` [Example 155, (R)-5-(2-(5-fluoro-2-methoxypyridin-3-yl)pyrrolidin-1-yl)-N-(2-hydroxyethyl)pyrazolo[1,5-a]pyrimidine-3-carboxamide], the inhibition at 1 µM is 33.3%. To `COc1ncc(F)cc1[C@H]1CCCN1c1ccn2ncc(C(=O)NC[C@H](C)O)c2n1` [Example 156, 5-((R)-2-(5-fluoro-2-methoxypyridin-3-y1)pyrrolidin-1-yl)-N-((S)-2-hydroxypropyl)pyrazolo[1,5-a]pyrimidine-3-carboxamide] belongs 16.1%. For `COc1ncc(F)cc1[C@H]1CCCN1c1ccn2ncc(C(=O)NC[C@@H](C)O)c2n1` [Example 157, 5-((R)-2-(5-fluoro-2-methoxypyridin-3-yl)pyrrolidin-1-yl)-N-((R)-2-hydroxypropyl)pyrazolo[1,5-a]pyrimidine-3-carboxamide], the inhibition at 1 µM stood at 9.6%.

With `COc1ncc(F)cc1[C@H]1CCCN1c1ccn2ncc(C(=O)NCC(C)(C)O)c2n1` [Example 158, (R)-5-(2-(5-fluoro-2-methoxypyridin-3-yl)pyrrolidin-1-yl)-N-(2-hydroxy-2-methylpropyl)pyrazolo[1,5-a]pyrimidine-3-carboxamide], the inhibition at 1 µM is 14.4%.

The values are drawn from patent publication US10251889B2, “Substituted pyrazolo[1,5-a]pyrimidine compounds as Trk kinase inhibitors” (Array BioPharma, Inc., priority 2009, dated 2019).
